Experiments:
[1] = tested on: C1S mRNA; test: Complement gene mRNA expression, TaqMan real-time PCR, Huh-7 cells; type: cell-based; conditions: Homo sapiens; Huh-7, 48 h treatment; read-out: C1S (48 h) mRNA, half maximal inhibitory concentration (IC50)
From the text: In this example, mRNA levels from cultured cells were quantitated. The assay can be used to determine the effect of compound(s) on regulating mRNA levels, including those compounds in the present invention. Complement genes are expressed at high endogenous levels, but their expression can also be stimulated with various cytokines in inflammatory conditions. Experiments in this example target both basal and inflammatory complement gene expression. Compound mediated changes in gene expression and resulting mRNA levels are presented in Tables 2, 3 and 4 as well as FIGS. 1, 2, 3 and 4 below.
Huh-7 and HepG2 cells are liver-derived cell lines and are models for what can occur in the liver. Huh-7 cells (JCRB Cell Bank) were introduced to 96-well plates (^˜2.5×10^5 per well) in 100 μL DMEM containing 10% (v/v) FBS, 100 U/mL penicillin, 100 ug/mL streptomycin and 5 ug/mL plasmocin (all reagents from Gibco, except for the former, which was obtained from Invivogen). After 24 h, Huh-7 cells were treated with compounds in the same media formulation used for plating, and supplemented with 0.1% DMSO for the amount of time indicated in tables 2, 3, and 4. For select experiments, 24 h post-plating, cells were treated with cytokines and the compound of interest simultaneously, for a total treatment time of 48 h. Alternatively, 24 h after plating, cells were pre-treated with cytokines for 24 h before adding the compound of interest for 48 h. HepG2 cells (ATCC) were cultured in 96-well plates (^˜2.5×10^5 per well) in MEM containing 10% FBS, 1× non-essential amino acids, 1 mM sodium pyruvate, 2 mM L-glutamine, 100 U/mL penicillin, 100 ug/mL streptomycin and 5 ug/mL plasmocin. Serum amount was reduced to 0.5% for treatments with compound or cytokines. Timing of treatment of HepG2 cells with compounds and cytokines was as described for Huh-7 cells. Primary human hepatocytes (CellzDirect/Life Technologies) were plated in collagen coated 96-well plates at 70 000 cells/well, then overlaid with Matrigel™ as recommended by the supplier. Cells were treated with compounds of interest and/or cytokines for the indicated time points in the recommended media supplemented with 0.1% DMSO and 10% FBS (v/v). Cells were harvested by mRNA Catcher PLUS Kit (Life Technologies) followed by real-time PCR using the RNA UltraSense One-Step qRT-PCR System. The level of the mRNA of interest was measured by TaqMan real-time PCR relative to the endogenous control cyclophilin A in the same sample. […]
Downregulation of expression of components of the complement cascade will result in reduced activity of the pathway and thus will constitute a positive result. […] Table 4 lists the maximum reduction in the indicated mRNA measured in primary human hepatocytes treated with compounds for up to 72 hours. […]

[2] = tested on: Complement component 3 (C3) mRNA; test: Microarray analysis of ex-vivo treated human whole blood; type: cell-based; conditions: 20 uM, 24 h
Experimental: (§1) In this example, RNA from human whole blood treated ex vivo was analyzed by microarray. The method can be used to determine the effect of compounds, including those in the present invention, on RNA levels (Table 6).
(§2) After obtaining informed consent, whole blood was collected from three healthy volunteers into BD Vacutainer Sodium Heparin tubes and samples were inverted 10 times. Blood samples (1 mL) were combined with 1 mL of RPMI containing 2 mM glutamine, 100 U/mL penicillin, 100 ug/mL streptomycin, 20% FBS and the compound of interest or vehicle (0.1% DMSO), followed by a 24 h incubation at 37° C. Treated samples were transferred to a PAXgene RNA tube (PreAnalytix/Qiagen), inverted 5 times and frozen. RNA was isolated with the PAXgene RNA kit according to manufacturer's instructions. Microarray analysis was performed by Asuragen (Austin, Tex.) using the Affymetrix Human […]. Shown in Table 6 is the mean of 3 independent samples (p<0.01). Downregulation of expression of components of the complement cascade will result in reduced activity of the pathway and thus will constitute a positive result. Upregulation of negative regulators or downregulation of positive regulators of the pathway will also result in reduced activity of the pathway and thus will constitute a positive result.

[3] = tested on: CD59 mRNA; test: as above; type: cell-based; conditions: 20 uM, 24 h
Experimental: as §1, §2

[4] = tested on: CD55 mRNA; test: as above; type: cell-based; conditions: 20 uM, 24 h
Experimental: as §1, §2

[5] = tested on: Mannan-binding lectin serine protease 1; test: SOMAscan protein quantitation in clinical samples, ASSURE trial; type: in vivo, human; conditions: 200 mg/day, week 26 vs. baseline
Experimental: (§3) In this example, plasma samples from human subjects treated with placebo or RVX000222 are analyzed by the SOMAscan™ assay (SomaLogic). The method can be used to determine the effect of compounds, including those in the present invention, on the abundance of proteins, including complement components, in clinical samples. […] Using the SOMAscan™ technology, each sample is analyzed for the relative presence and amount of 1,310 different proteins. The changes in values for each protein analyte are calculated versus the baseline measure, and statistically significant (p<0.05) values are reported (Table 10). Downregulation of expression of components of the complement cascade will result in reduced activity of the pathway and thus will constitute a positive result.

[6] = tested on: Complement component C9; test: as above; type: in vivo, human; conditions: 200 mg/day, week 26 vs. baseline
Experimental: as §3

[7] = tested on: Complement C5; test: as above; type: in vivo, human; conditions: 200 mg/day, week 26 vs. baseline
Experimental: as §3

[8] = tested on: Complement C3b; test: as above; type: in vivo, human; conditions: 200 mg/day, week 26 vs. baseline
Experimental: as §3

[9] = tested on: Complement factor I; test: as above; type: in vivo, human; conditions: 200 mg/day, week 26 vs. baseline
Experimental: as §3

[10] = tested on: Mannose-binding protein C; test: as above; type: in vivo, human; conditions: 200 mg/day, week 26 vs. baseline
Experimental: as §3

[11] = tested on: Complement C2; test: as above; type: in vivo, human; conditions: 200 mg/day, week 26 vs. baseline
Experimental: as §3

[12] = tested on: alternative complement pathway activity; test: Complement alternative pathway (AH50) assay on clinical serum samples; type: in vivo, human; conditions: ASSURE trial, 26 weeks vs baseline
Experimental: The method can be used to determine the effect of compounds, including those in the present invention, on the activity of the classical and alternative complement system in clinical samples. […] Using the CH50 screening assay to detect the hemolysis of sheep erythrocytes sensitized by specific antibodies, the hemolytic activity of the complement system in serum samples from treated and untreated subjects was measured. Likewise, using specific conditions to activate only the alternative pathway (AH50), activity of the complement response was measured. The degree of complement activation was measured at baseline and terminally to determine if there were any changes in the function of the complement system following drug treatment (FIG. 7). Reduced function of the complement system constitutes a positive result.

Row | Structure (SMILES) | IC50 [1] | Complement component 3 (C3) % change in expression [2] | CD59 % change in expression [3] | CD55 % change in expression [4] | Mannan-binding lectin serine protease 1 (MASP1) % change vs. baseline [5] | Complement component C9 (C9) % change vs. baseline [6] | Complement C5 (C5) % change vs. baseline [7] | Complement C3b (C3) % change vs. baseline [8] | Complement factor I (CFI) % change vs. baseline [9] | Mannose-binding protein C (MBL2) % change vs. baseline [10] | Complement C2 (C2) % change vs. baseline [11] | complement activity in clinical samples, AHSO assay (FIG. 7A) [12]
1 | Cc1sc2c(c1C)C(c1ccc(Cl)cc1)=N[C@@H](CC(=O)OC(C)(C)C)c1nnc(C)n1-2 [JQ1, (S)-tert-butyl 2-(4-(4-chlorophenyl)-2,3,9-trimethyl-6H-thieno[3,2-f][1,2,4]triazolo[4,3-a][1,4]diazepin-6-yl)acetate, reference compound] | 0.3 µM | – | – | – | – | – | – | – | – | – | – | –
2 | COc1cc(OC)c2c(=O)[nH]c(-c3cc(C)c(OCCO)c(C)c3)nc2c1 [RVX000222, 2-(4-(2-hydroxyethoxy)-3,5-dimethylphenyl)-5,7-dimethoxyquinazolin-4(3H)-one] | 18.9 µM | −59% | 88% | 58% | 4.8% | −18.3% | −11.7% | −52.7% | −6.4% | −14.6% | −6.7% | reduces complement activity
